Data on one compound can be found in article PMC6225212, “Synthesis and Pharmacological Evaluation of Novel Silodosin-Based Arylsulfonamide Derivatives as α1A/α1D-Adrenergic Receptor Antagonist with Potential Uroselective Profile” (Molecules : A Journal of Synthetic Chemistry and Natural …, 2018).

Data set [1] is described as follows: In vitro metabolic stability in rat-liver microsomes (RLM). The format is in vitro ADME. The method, then:
In vitro biotransformation assays of selected compounds 9 and 10 were performed using rat-liver microsomes (RLM), potassium-phosphate buffer, NADPH-regenerating system (NADP, glucose-6-phosphate, glucose-6-phosphate dehydrogenase), and levallorphan as internal standard, according to the previously published procedure. Compound I and the drug tamsulosin were used as reference standard. UPLC/MS analysis (Waters Corporation, Milford, MA, USA) was performed to determine the quantity of the starting material left in solution. The in vitro half-time (t1/2) for test compounds was determined from the slope of the linear regression of ln % parent compound remaining versus incubation time. The calculated t1/2 was incorporated into the following equation to obtain intrinsic clearance: (Clint) = (volume of incubation [µL]/protein in the incubation [mg]) × 0.693/t1/2.
Metabolic stability of tested compound was analyzed using incubation systems, composed of: tested compounds (10 μM), RLMs (microsomes from rat male liver, pooled; 0.2 mg/mL; Sigma Aldrich), NADPH-regenerating system (NADP+, glucose-6-phosphate and glucose-6-phosphate dehydrogenase in 100mM potassium buffer, pH 7.4; all from Sigma Aldrich), and potassium buffer, pH 7.4. […] Firstly, all samples contained incubation mixture (without NADPH-regenerating system) were preincubated in a thermoblock at 37 °C for 10 min. Then reaction was initiated by the addition of NADPH-regenerating system. In control samples NADPH-regenerating system was replaced with potassium buffer. Probes were incubated in thermoblock for 15 and 30 min at 37 °C. After addition of internal standard (levallorphan, 10 μM), the biotransformation process was stopped by addition of perchloric acid (69–72%, by volume). Next, samples were centrifuged (Centrifuge 5427 R, Eppendorf, Hamburg, Germany) and supernatants were analyzed using UPLC/MS (Waters Corporation). All experiments were run in duplicates. Half-life time was evaluated using a nonlinear regression model using Graph Pad Prism software (Graph Pad Software, La Jolla, San Diego, CA, USA) and intrinsic clearance was calculated from the equation Clint = (volume of incubation [μL]/protein in the incubation [mg]) ×∙0.693/t1/2 [33].

For a further data set, the target named is α2-ARs. More on the design: method as in PMID 27658792. As to conditions: [3H]-Clonidine, rat cerebral cortex; ± SEM; cited from earlier work.
A further data set deals with T1, α1A-ARs (Homo sapiens, UniProt P35348).
T1 sequence (P35348 1-466): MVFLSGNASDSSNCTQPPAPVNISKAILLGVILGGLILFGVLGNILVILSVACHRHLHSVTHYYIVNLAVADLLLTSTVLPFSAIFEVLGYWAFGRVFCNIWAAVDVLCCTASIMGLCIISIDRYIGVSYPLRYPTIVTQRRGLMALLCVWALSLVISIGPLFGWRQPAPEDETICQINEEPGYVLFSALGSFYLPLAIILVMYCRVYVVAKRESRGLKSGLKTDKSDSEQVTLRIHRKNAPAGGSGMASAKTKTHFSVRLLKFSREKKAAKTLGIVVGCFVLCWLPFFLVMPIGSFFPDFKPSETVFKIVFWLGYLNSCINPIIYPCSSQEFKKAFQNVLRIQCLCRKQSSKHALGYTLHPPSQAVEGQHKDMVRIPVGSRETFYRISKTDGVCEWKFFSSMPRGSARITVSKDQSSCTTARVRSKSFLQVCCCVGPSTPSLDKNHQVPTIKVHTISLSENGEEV
More on the design: method as in PMID 27658792; key to α1A Profile: ANT—antagonist; AGO—agonist. As to conditions: cited from earlier work.

In the next data set the target is T2, α1B-ARs (Homo sapiens, UniProt P35368).
T2 sequence (P35368 1-520): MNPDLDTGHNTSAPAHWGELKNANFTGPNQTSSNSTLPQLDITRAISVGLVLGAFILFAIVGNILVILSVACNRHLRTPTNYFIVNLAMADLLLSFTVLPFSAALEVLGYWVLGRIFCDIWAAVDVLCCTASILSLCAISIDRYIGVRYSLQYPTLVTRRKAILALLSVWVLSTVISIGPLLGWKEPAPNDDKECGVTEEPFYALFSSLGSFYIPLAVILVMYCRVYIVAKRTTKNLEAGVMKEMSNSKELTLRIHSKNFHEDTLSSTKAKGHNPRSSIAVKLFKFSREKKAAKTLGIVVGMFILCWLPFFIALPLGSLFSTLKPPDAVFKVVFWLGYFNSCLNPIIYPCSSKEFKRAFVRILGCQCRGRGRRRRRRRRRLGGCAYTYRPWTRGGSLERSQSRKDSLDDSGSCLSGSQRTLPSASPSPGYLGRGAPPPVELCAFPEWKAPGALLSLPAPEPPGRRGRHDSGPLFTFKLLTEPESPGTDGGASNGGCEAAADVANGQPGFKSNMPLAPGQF
Set-up: method as in PMID 27658792; key to α1B Profile: ANT—antagonist; AGO—agonist. As to conditions: cited from earlier work.

A further data set addresses T3, α1D-ARs (Homo sapiens, UniProt P25100).
T3 sequence (P25100 1-572): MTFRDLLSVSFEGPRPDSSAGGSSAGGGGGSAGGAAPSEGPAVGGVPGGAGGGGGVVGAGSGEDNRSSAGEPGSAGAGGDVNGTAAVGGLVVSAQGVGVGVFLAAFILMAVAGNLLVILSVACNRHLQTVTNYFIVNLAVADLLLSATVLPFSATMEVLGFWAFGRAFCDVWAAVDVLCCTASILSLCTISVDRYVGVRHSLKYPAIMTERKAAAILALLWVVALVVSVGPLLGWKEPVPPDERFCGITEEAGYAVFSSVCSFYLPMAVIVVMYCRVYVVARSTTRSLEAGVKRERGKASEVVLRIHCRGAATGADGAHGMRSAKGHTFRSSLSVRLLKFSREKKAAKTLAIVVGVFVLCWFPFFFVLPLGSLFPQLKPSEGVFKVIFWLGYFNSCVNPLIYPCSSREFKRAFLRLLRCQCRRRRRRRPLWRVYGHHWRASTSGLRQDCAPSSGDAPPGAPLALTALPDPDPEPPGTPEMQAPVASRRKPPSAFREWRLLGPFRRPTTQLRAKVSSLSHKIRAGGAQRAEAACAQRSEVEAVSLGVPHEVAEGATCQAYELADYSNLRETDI
More on the design: method as in PMID 27658792; key to α1D Profile: ANT—antagonist; AGO—agonist. As to conditions: cited from earlier work.

In the case of `CC(C)Oc1ccccc1OCCN1CCC(CNS(=O)(=O)c2cccc(Cl)c2F)CC1` [Compound I], the “Major Metabolic Pathway” value in data set [1] (RLM) was “N-dealkylation”. Moreover, in data set [1] (male, rat, rat liver microsomes, pH 7.4, RLM 0.2 mg/mL, compound 10 μM, 37 °C), the intrinsic clearance (microsomal CLint) (usually the capacity of the preparation to metabolise the compound, expressed as a volume cleared per time) at 10 μM came to 87 µL/min/mg. For the same compound, the half-life at 10 μM in data set [1] (male, rat, rat liver microsomes, pH 7.4, RLM 0.2 mg/mL, compound 10 μM, 37 °C, read-out: t½) was determined as 40 min. Further, the inhibitory constant (Ki) (in general, the dissociation constant of the complex between target and ligand, obtained from inhibition or displacement) on α2-ARs is 1210 ± 99 nM. Further, the half-maximal inhibitory concentration (IC50) (commonly the midpoint of a concentration-inhibition curve) on α1A-ARs (antagonist mode) was 11.1 nM; on α1B-ARs (antagonist mode), 42.1 nM; on α1D-ARs (antagonist mode) it was 15.1 nM. For the same compound, the “α1A Profile” value on α1A-ARs (functional profile) is given as “ANT ^b”. Also, at α1B-ARs (functional profile), the “α1B Profile” value is on record as “ANT”. Moreover, the “α1D Profile” value on α1D-ARs (functional profile) is reported as “ANT”.
